In US7855198B2, “Benzamide derivative or salt thereof” (Astellas Pharma Inc., priority 2003, dated 2010):
Counter-ions that a name gives are not always drawn.

Legend:
human VR1 = target: T1, human VR1 (Homo sapiens, UniProt Q8NER1); assay: Receptor binding assay ([3H]RTX) using membranes of VR1 stably expressing cell; conditions: [3H]RTX binding, VR1/HEK293 membrane preparation
T1 construct: A full-length cDNA encoding human VR1 was obtained by the following method; expressed in transfected cells; membrane preparation
T1 sequence (Q8NER1 whole entry): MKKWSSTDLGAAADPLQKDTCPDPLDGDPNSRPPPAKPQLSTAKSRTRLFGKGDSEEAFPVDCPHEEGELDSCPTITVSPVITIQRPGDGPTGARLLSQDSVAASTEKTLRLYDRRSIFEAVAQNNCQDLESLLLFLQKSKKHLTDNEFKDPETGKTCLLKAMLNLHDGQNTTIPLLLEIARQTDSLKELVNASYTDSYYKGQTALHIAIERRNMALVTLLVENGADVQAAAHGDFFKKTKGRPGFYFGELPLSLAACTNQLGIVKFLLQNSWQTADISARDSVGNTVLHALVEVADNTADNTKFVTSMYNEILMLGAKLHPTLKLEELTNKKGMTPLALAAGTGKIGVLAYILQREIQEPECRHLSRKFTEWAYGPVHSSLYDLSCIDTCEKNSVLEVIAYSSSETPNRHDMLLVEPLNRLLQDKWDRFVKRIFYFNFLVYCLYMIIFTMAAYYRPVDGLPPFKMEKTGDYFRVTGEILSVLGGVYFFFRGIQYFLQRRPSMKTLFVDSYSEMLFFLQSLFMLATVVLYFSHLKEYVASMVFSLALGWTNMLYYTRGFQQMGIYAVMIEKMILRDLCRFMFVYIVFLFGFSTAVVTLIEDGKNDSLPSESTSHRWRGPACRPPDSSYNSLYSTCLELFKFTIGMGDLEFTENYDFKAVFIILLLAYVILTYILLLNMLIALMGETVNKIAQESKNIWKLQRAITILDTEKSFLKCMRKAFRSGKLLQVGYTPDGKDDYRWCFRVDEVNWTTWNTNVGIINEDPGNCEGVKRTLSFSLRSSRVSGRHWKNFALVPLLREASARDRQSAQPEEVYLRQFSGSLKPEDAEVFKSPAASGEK
Experimental: A full-length cDNA encoding human VR1 was obtained by the following method. First, human brain mRNA was reverse transcribed using a reverse transcriptase to synthesize a first strand cDNA. Then, using the first strand cDNA as a template, PCR according to Hot Start method was carried out using Taq DNA polymerase. The above PCR was carried out by first conducting thermal denaturation of 98° C. (1 min) and then repeating a cycle consisting of 98° C. (15 sec)/63° C. (30 sec)/72° C. (3 min) 35 times using an oligonucleotide consisting of a base sequence of 424th to 443rd in a known human VR1 cDNA sequence (Genbank AJ277028.1) as a sense primer and an oligonucleotide consisting of a complimentary sequence of a base sequence of 3082nd to 3100th as an antisense primer.
An amplified DNA fraction was cloned using pCR-XL-TOPO vector (TOPO XL PCR Cloning Kit; Invitrogen, USA). The resulting plasmid DNA was digested with a restriction enzyme EcoRI to isolate human VR1-cDNA alone, which was then integrated into pcDNA3.1(+) plasmid (Invitrogen, USA). The above genetic engineering operations were carried out in accordance with known methods (Sambrook, J. et al, Molecular Cloning—A Laboratory Manual”, Cold Spring Harbor Laboratory Press, NY, 2001) and directions attached to individual reagents.
Next, the resulting pcDNA3.1-VR1 was transduced into HEK293 cells or CHO-KL cells. VR1/HEK293 cells were selected using a DMEM medium (Invitrogen, USA) containing 10% FBS, 100 μg/ml streptomycin, 100 U/ml penicillin, and 400 μg/ml G418 and VR1/CHO cells were selected using a HumF12 medium (Invitrogen, USA) containing 10% FBS, 100 μg/ml streptomycin, 100 U/ml penicillin, and 400 μg/ml G418 to prepare receptor stably expressing cell lines. The receptor stably expressing cells were subcultured in respective above media.
After the above VR1/HEK293 cells were cultured in glass dishes in a large quantity, the medium was removed and cells were scraped up with adding ice-cooled PBS. They were centrifuged at 1,000 rpm at 4° C. for 10 minutes. After a buffer for homogenization (25 mM Tris-HCl, 220 mM sucrose, pH 7.4) was added to the resulting sediment and the whole was homogenized, it was centrifuged at 2,200 rpm at 4° C. for 10 minutes. The resulting supernatant was centrifuged at 30,000×g at 4° C. for 20 minutes and an operation of adding 25 mM Tris-HCl, pH 7.4 to the resulting sediment and centrifuging it at 30,000×g at 4° C. for 20 minutes was repeated twice. The resulting sediment was suspended in 25 mM Tris-HCl, pH 7.4 and protein concentration was determined using a protein assay staining solution (Bio Rad, USA). The membrane preparation thus prepared was stored at −80° C.
The test was carried out by modifying the method of [Neurosci. 57: 747-757 (1993)]. Assay buffer (25 mM Tris-HCl, 0.025% BSA, pH 7.4) (147 μl), 3 μl of a test compound, 50 μl of [^3H]RTX (about 50,000 dpm; Perkin-Elmer Life Science, USA), 100 μl of the above membrane preparation (protein amount of about 25 μg) were mixed and incubated at 37° C. for 60 minutes, and then the whole was incubated on ice for 10 minutes. An ice-cooled […] (AGP; Sigma) was added in an amount of 200 μg/50 μl, followed by further 5 minutes of incubation. The completion of the incubation was effected by rapid filtration of the mixture using a GF/B filter (Perkin-Elmer Life Science, USA). After the filter was washed with ice-cooled 25 mM Tris-HCl buffer (pH 7.4) seven times, radioactivity of the filter was measured by means of a liquid scintillation counter (2500TR; Packard, USA). With regard to a specific binding, of the total binding amount of [^3H]RTX and membrane fractions of VR1 receptor stably expressing cell, a portion substituted by 1 μM RTX was regarded as a specific binding derived from VR1 receptor. Evaluation of the test compound was conducted as follows. […]

[1] = system: paw-licking action induced by capsaicin; assay: Capsaicin test (paw-licking action); type: in vivo; conditions: mouse, oral administration 30 mg/kg, 45 minutes before capsaicin; read-out: Inhibition ratio (%)
Experimental: The test was carried out in accordance with [Neuropharmacol. 31: 1279-1285 (1992)]. When 1.6 μg of capsaicin was administered to the planta of a mouse (ddY, male, 4- to 5-weeks old), a paw-licking action is induced. By measuring a time of expressing paw-licking action during 5 minutes after the administration, an inhibitory effect on pain behavior was evaluated. A test compound was administered intraperitoneally 30 minutes before the capsaicin administration or administered orally 45 minutes before the capsaicin administration. Evaluation of the test compound was conducted by determining each inhibition ratio in a test compound-administered group when the time of expressing paw-licking action in a vehicle-administered group was regarded as 100%.

Row | Compound | IC50 (human VR1) [nM] | inhibition in vivo at 30 mg/kg [1] [%]
1 | COc1cccc(NC(=O)c2ccc(-c3ccccc3)c(CN3CCCCC3)c2)c1 [Example 1, N-(3-methoxyphenyl)-2-(piperidin-1-ylmethyl)biphenyl-4-carboxamide hydrochloride] | ≤ 1000 | –
2 | CC(C)N(Cc1cc(C(=O)Nc2ccc3scnc3c2)ccc1-c1ccccc1)C1CCCCC1 [Example 33] | ≤ 1000 | 66
3 | CN(C)c1ccc(NC(=O)c2ccc(-c3ccccc3)c(CN3CCCCC3)c2)cn1 [Example 71] | ≤ 1000 | –
4 | CC1Oc2ccc(NC(=O)c3ccc(-c4ccccc4)c(CN4CCCCC4)c3)cc2N(C)C1=O (stereo not drawn) [Example 85] | ≤ 1000 | 86
5 | CC1(C)C(=O)Nc2cc(NC(=O)c3ccc(-c4ccccc4)c(CN4CCCCC4)c3)ccc21 [Example 87] | ≤ 1000 | 67
6 | O=C(Nc1ccc2scnc2c1)c1ccc(-c2ccccc2)c(CN2CCC(F)CC2)c1 [Example 110] | ≤ 1000 | –
7 | CC1CCN(C2CCCN(Cc3cc(C(=O)Nc4ccc5c(c4)NC(=O)C(C)O5)ccc3-c3ccccc3)C2)CC1 (stereo not drawn) [Example 122] | ≤ 1000 | –
8 | CCN(Cc1cc(C(=O)Nc2ccc3c(c2)NC(=O)C(C)O3)ccc1-c1ccccc1)CC(C)(C)O (stereo not drawn) [Example 123] | ≤ 1000 | 69
9 | CCN(CC)Cc1cc(C(=O)Nc2cc3c(c(C(F)(F)F)c2)CC(=O)N3)ccc1-c1ccccc1 [Example 143] | ≤ 1000 | –
10 | CN1C(=O)CCc2ccc(NC(=O)c3ccc(-c4cccs4)c(CN4CCCCC4)c3)cc21 [Example 163] | ≤ 1000 | –
11 | CCN(Cc1cc(C(=O)Nc2ccc3c(c2)N(C)C(=O)CC3)ccc1-c1ccccc1)C1CCSCC1 [Example 181] | ≤ 1000 | –
12 | CC(C)CN(CCN1CCCCC1)Cc1cc(C(=O)Nc2ccc3c(c2)NC(=O)C(C)O3)ccc1-c1ccccc1 (stereo not drawn) [Example 195] | ≤ 1000 | –

Further lines, with some results ahead:

Row | IC50 (human VR1) [nM] | Compound | inhibition in vivo at 30 mg/kg [1] [%]
13 | ≤ 1000 | O=C(Nc1ccc2scnc2c1)c1ccc(-c2ccccc2)c(CN2CCCCC2)c1 [Example 7] | –
14 | ≤ 1000 | O=C(Nc1ccc2scnc2c1)c1ccc(-c2ccccc2)c(CN2CCOCC2)c1 [Example 21] | –
15 | ≤ 1000 | O=C1CCc2ccc(NC(=O)c3ccc(-c4ccccc4)c(CN4CCCCC4)c3)cc2N1 [Example 60] | –
16 | ≤ 1000 | CN1C(=O)CCc2ccc(NC(=O)c3ccc(-c4ccccc4)c(CN4CCCCC4)c3)cc21 [Example 78] | 76
17 | ≤ 1000 | Cn1c(=O)ccc2ccc(NC(=O)c3ccc(-c4ccccc4)c(CN4CCCCC4)c3)cc21 [Example 129] | 91
18 | ≤ 1000 | Cc1cc2ccc(NC(=O)c3ccc(-c4ccccc4)c(CN4CCCCC4)c3)cc2[nH]c1=O [Example 130] | 62
19 | ≤ 1000 | CCN(Cc1cc(C(=O)Nc2ccc3c(c2)N(C)C(=O)CC3)ccc1-c1ccccc1)C1CCOCC1 [Example 170] | 68
